Test results: ChEMBL document CHEMBL3600325, “Inhibitory effect of pironetin analogue/colchicine hybrids on the expression of the VEGF, hTERT and c-Myc genes” (2015)

Assays:
Assay type in all cases: functional
Design in all cases: scale not given: the % may be the effect or the level left
HT-29 [1] = assay: Inhibition of VEGF mRNA expression in human HT-29 cells assessed as VEGF mRNA level at 5 ug/ml incubated for 48 hrs by RT-PCR method relative to control
HT-29 [2] = assay: Inhibition of hTERT mRNA expression in human HT-29 cells assessed as hTERT mRNA level at 5 ug/ml incubated for 48 hrs by RT-PCR method relative to control
HT-29 [3] = assay: Inhibition of VEGF production in human HT-29 cells assessed as VEGF level at 5 ug/ml incubated for 72 hrs by ELISA method relative to control
HT-29 [4] = assay: Inhibition of Myc mRNA expression in human HT-29 cells assessed as Myc mRNA level at 5 ug/ml incubated for 48 hrs by RT-PCR method relative to control
HT-29 [5] = assay: Inhibition of hTERT mRNA expression in human HT-29 cells assessed as hTERT mRNA level at 50 nM incubated for 48 hrs by RT-PCR method relative to control
HT-29 [6] = assay: Inhibition of Myc mRNA expression in human HT-29 cells assessed as Myc mRNA level at 10 uM incubated for 48 hrs by RT-PCR method relative to control
HT-29 [7] = assay: Inhibition of Myc mRNA expression in human HT-29 cells assessed as Myc mRNA level at 50 nM incubated for 48 hrs by RT-PCR method relative to control
HT-29 [8] = assay: Inhibition of hTERT mRNA expression in human HT-29 cells assessed as hTERT mRNA level at 10 uM incubated for 48 hrs by RT-PCR method relative to control
HT-29 [9] = assay: Inhibition of VEGF mRNA expression in human HT-29 cells assessed as VEGF mRNA level at 50 nM incubated for 48 hrs by RT-PCR method relative to control
HT-29 [10] = assay: Inhibition of VEGF mRNA expression in human HT-29 cells assessed as VEGF mRNA level at 10 uM incubated for 48 hrs by RT-PCR method relative to control

Row | Compound | Activity (HT-29 [1]) | Activity (HT-29 [2]) | Activity (HT-29 [3]) | Activity (HT-29 [4]) | Activity (HT-29 [5]) | Activity (HT-29 [6]) | Activity (HT-29 [7]) | Activity (HT-29 [8]) | Activity (HT-29 [9]) | Activity (HT-29 [10])
1 | COc1cc2c(c(OC)c1OC)-c1ccc(OC)c(=O)cc1[C@@H](NC(=O)CCCC(=O)OCCCCC[C@@H]1CC=CC(=O)O1)CC2 | 6% | 67% | 45% | 16% |  |  |  |  |  | 
2 | COc1cc2c(c(OC)c1OC)-c1ccc(OC)c(=O)cc1[C@@H](NC(=O)CCCCCCCCCCC(=O)OCCCCC[C@@H]1CC=CC(=O)O1)CC2 | 3% | 19% | 64% | 5% | 75% | 13% | 60% | 27% | 36% | 8%
3 | COc1cc2c(c(OC)c1OC)-c1ccc(OC)c(=O)cc1[C@@H](NC(=O)CCCC(=O)OCC[C@H](C[C@H](C)C[C@@H]1CC=CC(=O)O1)OC)CC2 | 70% | 125% | 44% | 97% |  |  |  |  |  | 
4 | COc1cc2c(c(OC)c1OC)-c1ccc(OC)c(=O)cc1[C@@H](NC(=O)CCCCCCCCCCC(=O)OCC[C@H](C[C@H](O)C[C@@H]1CC=CC(=O)O1)OC)CC2 | 7% | 42% | 44% | 15% | 81% | 32% | 94% | 55% | 51% | 9%
5 | CO[C@H](CCO)C[C@H](O)C[C@@H]1CC=CC(=O)O1 | 44% | 125% | 93% | 111% | >100% | 66% | >100% | >100% | 90% | 40%
6 | COc1cc2c(c(OC)c1OC)-c1ccc(OC)c(=O)cc1[C@@H](NC(C)=O)CC2 [COLCHICINE] | 4% | 20% | 40% | 6% | 43% | 6% | 19% | 30% | 48% | 5%
7 | C/C=C/C[C@H](C)[C@@H](OC)[C@@H](C)[C@H](O)C[C@H]1OC(=O)C=C[C@H]1CC [PIRONETIN] | 48% | 119% | 50% | 118% |  |  |  |  |  | 
